Data reported in patent US5344952A, “Fluoroketone enzyme inhibitors” (priority 1993, dated 1994).

Tests used:
RLE = test: Sandwich assay for Adenovirus, free inhibitor added to control wells (RLE, o-nitrophenyl butyrate); assay type: biochemical, rabbit; details: control wells having no antigen; 5×10^-9 M RLE, 50 mM TRIS pH 8.5, 1 mM o-nitrophenyl butyrate; color without inhibitor in ca 15 minutes
Procedure: A polyvinyl chloride microtiter plate was coated with anit-adenovirus antibody by incubating the plate for 1 hour at 37° C. in a 1:900 dilution of 4.5 mg/mL stock solution of the antibody in a 10 mM carbonate 20 mM ethylenediaminetetraacetic acid (EDTA) buffer. The plate was washed 3 times with a wash buffer solution consisting of 0.5% casein in 10 mM TRIS and 154 mM NaCl at pH 7.6. Adenovirus infected HeLa cells diluted to ca 1×10^5 plaque forming units (PFU)/ml in pH 7.4 phosphate buffered-saline containing 0.05% polyoxyethylenesorbitan monolaurate, 0.1 mg/ML gentamicin, 0.5% phenol red, 0.1% bovine serum albumin, 10 mM EDTA and 100 mM ethylene bis(oxyethylenenitrilo) tetraacetic acid were serially diluted in 2-fold steps across the plate. The plate was incubated-as above to bind the cells to the antibody, washed with wash buffer, incubated with a 0.005 mg/mL tracer solution of anti-adenovirus conjugated to alkaline phosphatase in wash buffer containing 0.5% gelatin and 10% inactivated fetal calf serum. Excess tracer solution was decanted and the plate was washed 3 times with TRIS buffer (without casein). A mixture of a 1×10^-4 M solution of the blocked inhibitor from Example I and 5×10^-9 M RLE in 50 mM TRIS buffer, pH 8.5, was added and the plate was incubated at room temperature for 10 minutes. o-Nitrophenyl butyrate (1 mM) was then added to each well of the plate. […]

[1] = biological target: T1, Rabbit Liver Esterase (E.C. 3.1.1.1) (Oryctolagus cuniculus, UniProt P12337); test: Inhibition constant, rabbit liver esterase (o-nitrophenylbutyrate hydrolysis); assay type: biochemical; details: RLE; 50 mM Tris pH=8.0; 20 min incubation at ambient temperature; substrate o-nitro-phenylbutrate
T1 construct: from tissue; host or cells: liver
T1 sequence (P12337 19-565): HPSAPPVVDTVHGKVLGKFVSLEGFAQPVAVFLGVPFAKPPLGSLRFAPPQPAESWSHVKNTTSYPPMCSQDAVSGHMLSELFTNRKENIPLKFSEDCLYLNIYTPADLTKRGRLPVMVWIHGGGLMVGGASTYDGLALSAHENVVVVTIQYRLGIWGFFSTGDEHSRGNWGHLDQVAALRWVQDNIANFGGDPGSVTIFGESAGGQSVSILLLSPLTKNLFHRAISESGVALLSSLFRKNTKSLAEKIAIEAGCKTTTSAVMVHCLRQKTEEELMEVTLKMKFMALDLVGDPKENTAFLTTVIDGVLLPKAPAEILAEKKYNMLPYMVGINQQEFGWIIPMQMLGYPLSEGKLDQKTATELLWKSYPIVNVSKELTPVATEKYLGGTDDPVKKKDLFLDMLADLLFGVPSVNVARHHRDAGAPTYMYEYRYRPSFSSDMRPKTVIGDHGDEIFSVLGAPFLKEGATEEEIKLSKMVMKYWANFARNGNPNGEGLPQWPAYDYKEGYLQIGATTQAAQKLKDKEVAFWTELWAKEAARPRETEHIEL
Procedure: Inhibition constants were measured in 50 mM Tris pH=8.0. Enzyme and inhibitor were incubated at ambient temperature for 20 minutes. Substrate for the enzyme was then added and the rate of hydrolysis was followed spectrophotometrically. The substrate for PLE and RLE was o-nitro-phenylbutrate and for AChE was acetyl thiocholine and Ellman's reagent.

| SMILES | color formation in control wells on addition of free inhibitor (RLE) | Ki [1] [nM] |
| --- | --- | --- |
| O=C(CCc1ccc(O)cc1)C(F)(F)F [1,1,1-Trifluoro-4-(4-hydroxyphenyl)-2-butanone] | inhibited color formation for longer periods |  |
| O=C(/C=C/c1cccc(O)c1)C(F)(F)F [1,1,1-trifluoro-4-(3-hydroxyphenyl)-3-trans-buten-2-one] |  | 160 |
